Data reported in patent US4864023A, “Pyrido(3,2,1-IJ)-1,3,4-benzoxadiazine derivatives” (priority 1988, dated 1989).
Converted amounts (≈) assume the structure as drawn. Structures can show the parent of a compound that is named as a salt. Where two headings read alike, the source gives them in different places.

Columns and labels:
Escherichia coli ML4707 = test: in vivo therapeutic efficacy, lethal systemic infection in mice; details: E. coli ML4707 i.p. infection, ICR mice, p.o. at time of injection, mortality 5 days
Experimental: The in vivo antibacterial activities of pyrido[3,2,1-ij]-1,3,4-benzoxadiazine derivatives prepared by Example 5, Example 30, Example 65 and Example 66 as mentioned below were tested against lethal infection of Escherichia coli ML4707, Pseudomonas aeruginosa 4au542 and Streptococcus pneumoniae 6-001. ICR mice weighing about 20 g were infected by intraperitoneal injection of a corresponding bacterial suspension. The test compounds were administered orally or subcutaneously at the time of injection. […] The respective 50% effective dose (ED50, mg/kg) which protects 50% of the animals from death caused by infection, is shown in Table 3.

[1] = system: Bacillus subtilis PCI 219; test: in vitro antibacterial activity, standard agar dilution method; type: cell-based; details: PCI219, aerobic, read-out: minimum inhibitory concentration (MIC)
[2] = system: Staphylococcus aureus FDA 209P JC-1; test: as above; type: cell-based; details: FDA209P, read-out: minimum inhibitory concentration (MIC)
[3] = system: Staphylococcus aureus NR 2855; test: as above; type: cell-based; details: NR2855; Staphylococcus aureus NR 2855; aerobic; agar dilution; read-out: minimum inhibitory concentration (MIC)
[4] = system: Staphylococcus aureus Smith; test: as above; type: cell-based; details: read-out: minimum inhibitory concentration (MIC)
[5] = system: Staphylococcus epidermidis IFO 12993; test: as above; type: cell-based; details: IFO12993, aerobic, read-out: minimum inhibitory concentration (MIC)
[6] = system: Staphylococcus epidermidis NR 2942; test: as above; type: cell-based; details: NR2942, aerobic, read-out: minimum inhibitory concentration (MIC)
[7] = system: Enterococcus faecalis NR 2943; test: as above; type: cell-based; details: NR2943, aerobic, read-out: minimum inhibitory concentration (MIC)
[8] = system: Alcaligenes faecalis IFO 13111; test: as above; type: cell-based; details: IFO13111, aerobic, read-out: minimum inhibitory concentration (MIC)
[9] = system: Citrobacter freundii IFO 12681; test: as above; type: cell-based; details: IFO12681, aerobic, read-out: minimum inhibitory concentration (MIC)
[10] = system: Enterobacter aerogenes NR 2945; test: as above; type: cell-based; details: Klebsiella aerogenes, NR2945, aerobic, read-out: minimum inhibitory concentration (MIC)
[11] = system: Enterobacter cloacae NR 2946; test: as above; type: cell-based; details: NR2946, aerobic, read-out: minimum inhibitory concentration (MIC)
[12] = system: Escherichia coli NIHJ JC-2; test: as above; type: cell-based; details: NIHJJC2, aerobic, read-out: minimum inhibitory concentration (MIC)
Escherichia coli NR 2630 = test: as above; type: cell-based
[13] = system: Klebsiella pneumoniae FDA PCI 602; test: as above; type: cell-based; details: FDAPCI602, aerobic, read-out: minimum inhibitory concentration (MIC)
[14] = system: Bordetella bronchiseptica ATCC 4617; test: as above; type: cell-based; details: ATCC4617, aerobic, read-out: minimum inhibitory concentration (MIC)
[15] = system: Proteus rettgeri ATCC 14505; test: as above; type: cell-based; details: Providencia rettgeri, ATCC14505, aerobic, read-out: minimum inhibitory concentration (MIC)
[16] = system: Proteus vulgaris OX19 ATCC 6898; test: as above; type: cell-based; details: ATCC6898, aerobic, read-out: minimum inhibitory concentration (MIC)
[17] = system: Pseudomonas aeruginosa A3; test: as above; type: cell-based; details: aerobic, read-out: minimum inhibitory concentration (MIC)
[18] = system: Pseudomonas aeruginosa NR 2950; test: as above; type: cell-based; details: NR2950, aerobic, read-out: minimum inhibitory concentration (MIC)
[19] = system: Pseudomonas stutzeri IFO 12695; test: as above; type: cell-based; details: Stutzerimonas stutzeri, IFO12695, aerobic, read-out: minimum inhibitory concentration (MIC)
[20] = system: Serratia marcescens IFO 12648; test: as above; type: cell-based; details: IFO12648, aerobic, read-out: minimum inhibitory concentration (MIC)
[21] = system: Salmonella typhimurium IFO 12529; test: as above; type: cell-based; details: Salmonella enterica, aerobic, read-out: minimum inhibitory concentration (MIC)
[22] = acute toxicity by oral administration; details: mouse, in vivo; oral administration, ICR mice; read-out: LD50
Source text: The acute toxicity of these compounds was examined by oral administration in ICR mice.

[23] = Staphylococcus aureus Smith, aerobic, agar dilution
[24] = NR2630, Escherichia coli NR 2630, aerobic, agar dilution, read-out: minimum inhibitory concentration (MIC)
[25] = Staphylococcus aureus FDA 209P JC-1, aerobic, agar dilution

Compound	MIC [1]	MIC [3]	MIC [5]	MIC [6]	MIC [7]	MIC [8]	MIC [9]	MIC [10]	MIC [11]	MIC [12]	MIC [13]	MIC [14]	MIC [15]	MIC [16]	MIC [17]	MIC [18]	MIC [19]	MIC [20]	MIC [21]	LD50 [22]	also measured
CCOC(=O)c1cn2c3c(c(N4CCC(N)C4)c(F)cc3c1=O)OCN2C (stereo not drawn) [Example 65, ethyl 10-(3-amino-1-pyrrolidinyl)-9-fluoro-3-methyl-7-oxo-2,3-dihydro-7H-pyrido[3,2,1-ij]-1,3,4-benzoxadiazine-6-carboxylate]																					ED50 (Escherichia coli ML4707; Escherichia coli, ML4707, po, 120 h, read-out: 50% effective dose (ED50)): 1.12 mg/kg
CC1CN(c2c(F)cc3c(=O)c(C(=O)O)cn4c3c2OCN4C)CCN1 (stereo not drawn) [Example 7, 9-fluoro-3-methyl-10-(3-methyl-1-piperazinyl)-7-oxo-2,3-dihydro-7H-pyrido[3,2,1-ij]-1,3,4-benzoxadiazine-6-carboxylic acid]	0.1 µg/mL (≈ 0.276 µM)	1.56 µg/mL (≈ 4.31 µM)	0.78 µg/mL (≈ 2.15 µM)	0.78 µg/mL (≈ 2.15 µM)	12.5 µg/mL (≈ 34.5 µM)	6.25 µg/mL (≈ 17.2 µM)	0.05 µg/mL (≈ 0.138 µM)	0.05 µg/mL (≈ 0.138 µM)	0.1 µg/mL (≈ 0.276 µM)	0.1 µg/mL (≈ 0.276 µM)	0.39 µg/mL (≈ 1.08 µM)	3.13 µg/mL (≈ 8.64 µM)	0.78 µg/mL (≈ 2.15 µM)	0.025 µg/mL (≈ 0.069 µM)	0.2 µg/mL (≈ 0.552 µM)	3.13 µg/mL (≈ 8.64 µM)	0.05 µg/mL (≈ 0.138 µM)	0.2 µg/mL (≈ 0.552 µM)	0.05 µg/mL (≈ 0.138 µM)	> 2000 mg/kg	MIC ([2]; Staphylococcus aureus): 0.39 µg/mL (≈ 1.08 µM); MIC [4, 23]: 0.2 µg/mL (≈ 0.552 µM); MIC (Escherichia coli NR 2630; [24]): 0.025 µg/mL (≈ 0.069 µM)
CC1CN(c2c(F)cc3c(=O)c(C(=O)O)cn4c3c2OCN4C)CCN1C (stereo not drawn) [Example 36, 10-(3,4-dimethyl-1-piperazinyl)-9-fluoro-3-methyl-7-oxo-2,3-dihydro-7H-pyrido[3,2,1-ij]-1,3,4-benzoxadiazine-6-carboxylic acid]	0.025 µg/mL (≈ 0.0664 µM)	0.1 µg/mL (≈ 0.266 µM)	0.2 µg/mL (≈ 0.531 µM)	0.2 µg/mL (≈ 0.531 µM)	3.13 µg/mL (≈ 8.32 µM)	3.13 µg/mL (≈ 8.32 µM)	0.2 µg/mL (≈ 0.531 µM)	0.05 µg/mL (≈ 0.133 µM)	0.1 µg/mL (≈ 0.266 µM)	0.1 µg/mL (≈ 0.266 µM)	0.39 µg/mL (≈ 1.04 µM)	0.39 µg/mL (≈ 1.04 µM)	0.78 µg/mL (≈ 2.07 µM)	0.025 µg/mL (≈ 0.0664 µM)	0.78 µg/mL (≈ 2.07 µM)	6.25 µg/mL (≈ 16.6 µM)	0.1 µg/mL (≈ 0.266 µM)	0.39 µg/mL (≈ 1.04 µM)	0.1 µg/mL (≈ 0.266 µM)	> 2000 mg/kg	MIC [2, 25]: 0.39 µg/mL (≈ 1.04 µM); MIC [4, 23]: 0.1 µg/mL (≈ 0.266 µM); MIC (Escherichia coli NR 2630; [24]): 0.05 µg/mL (≈ 0.133 µM)
CCNCC1CCN(c2c(F)cc3c(=O)c(C(=O)O)cn4c3c2OCN4C)C1 (stereo not drawn) [Example 18]	0.013 µg/mL (≈ 0.0333 µM)	0.1 µg/mL (≈ 0.256 µM)	0.1 µg/mL (≈ 0.256 µM)	0.1 µg/mL (≈ 0.256 µM)	1.56 µg/mL (≈ 4 µM)	6.25 µg/mL (≈ 16 µM)	0.1 µg/mL (≈ 0.256 µM)	0.05 µg/mL (≈ 0.128 µM)	0.05 µg/mL (≈ 0.128 µM)	0.05 µg/mL (≈ 0.128 µM)	0.39 µg/mL (≈ 0.999 µM)	3.13 µg/mL (≈ 8.02 µM)	0.39 µg/mL (≈ 0.999 µM)	0.025 µg/mL (≈ 0.064 µM)	0.78 µg/mL (≈ 2 µM)	6.25 µg/mL (≈ 16 µM)	0.025 µg/mL (≈ 0.064 µM)	0.39 µg/mL (≈ 0.999 µM)	0.025 µg/mL (≈ 0.064 µM)	> 2000 mg/kg	MIC [2, 25]: 0.05 µg/mL (≈ 0.128 µM); MIC [4, 23]: 0.025 µg/mL (≈ 0.064 µM); MIC (Escherichia coli NR 2630; [24]): 0.013 µg/mL (≈ 0.0333 µM)
CNCC1CCN(c2c(F)cc3c(=O)c(C(=O)O)cn4c3c2OCN4C)C1 (stereo not drawn) [Example 17, 9-fluoro-3-methyl-10-[3-[(methylamino)methyl]-1-pyrrolidinyl]-7-oxo-2,3-dihydro-7H-pyrido[3,2,1-ij]-1,3,4-benzoxadiazine-6-carboxylic acid]	0.013 µg/mL (≈ 0.0345 µM)	0.2 µg/mL (≈ 0.531 µM)	0.2 µg/mL (≈ 0.531 µM)	0.1 µg/mL (≈ 0.266 µM)	1.56 µg/mL (≈ 4.14 µM)	6.25 µg/mL (≈ 16.6 µM)	0.2 µg/mL (≈ 0.531 µM)	0.05 µg/mL (≈ 0.133 µM)	0.1 µg/mL (≈ 0.266 µM)	0.1 µg/mL (≈ 0.266 µM)	0.78 µg/mL (≈ 2.07 µM)	6.25 µg/mL (≈ 16.6 µM)	1.56 µg/mL (≈ 4.14 µM)	0.025 µg/mL (≈ 0.0664 µM)	0.39 µg/mL (≈ 1.04 µM)	6.25 µg/mL (≈ 16.6 µM)	0.025 µg/mL (≈ 0.0664 µM)	0.78 µg/mL (≈ 2.07 µM)	0.05 µg/mL (≈ 0.133 µM)	> 2000 mg/kg	MIC [2, 25]: 0.05 µg/mL (≈ 0.133 µM); MIC [4, 23]: 0.025 µg/mL (≈ 0.0664 µM); MIC (Escherichia coli NR 2630; [24]): 0.025 µg/mL (≈ 0.0664 µM)
CN1COc2c(N3CCNCC3)c(F)cc3c(=O)c(C(=O)O)cn1c23 [Example 6, 9-fluoro-3-methyl-7-oxo-10-(1-piperazinyl)-2,3-dihydro-7H-pyrido[3,2,1-ij]-1,3,4-benzoxadiazine-6-carboxylic acid]	0.1 µg/mL (≈ 0.287 µM)	3.13 µg/mL (≈ 8.99 µM)	1.56 µg/mL (≈ 4.48 µM)	1.56 µg/mL (≈ 4.48 µM)	12.5 µg/mL (≈ 35.9 µM)	3.13 µg/mL (≈ 8.99 µM)	0.013 µg/mL (≈ 0.0373 µM)	0.013 µg/mL (≈ 0.0373 µM)	0.025 µg/mL (≈ 0.0718 µM)	0.025 µg/mL (≈ 0.0718 µM)	0.1 µg/mL (≈ 0.287 µM)	6.25 µg/mL (≈ 17.9 µM)	0.1 µg/mL (≈ 0.287 µM)	0.013 µg/mL (≈ 0.0373 µM)	0.1 µg/mL (≈ 0.287 µM)	0.78 µg/mL (≈ 2.24 µM)	0.025 µg/mL (≈ 0.0718 µM)	0.1 µg/mL (≈ 0.287 µM)	0.013 µg/mL (≈ 0.0373 µM)	> 2000 mg/kg	MIC ([2]; Staphylococcus aureus): 0.39 µg/mL (≈ 1.12 µM); MIC ([4]; Staphylococcus aureus): 0.39 µg/mL (≈ 1.12 µM); MIC (Escherichia coli NR 2630; Escherichia coli, NR2630, read-out: minimum inhibitory concentration (MIC)): 0.025 µg/mL (≈ 0.0718 µM)
CN1COc2c(N3CCC(N)C3)c(F)cc3c(=O)c(C(=O)O)cn1c23 (stereo not drawn) [Example 66, 10-(3-amino-1-pyrrolidinyl)-9-fluoro-3-methyl-7-oxo-2,3-dihydro-7H-pyrido[3,2,1-ij]-1,3,4-benzoxadiazine-6-carboxylic acid hydrochloride]																					50% effective dose (ED50) (Escherichia coli ML4707; hydrochloride, 7200 min): 0.51 mg/kg
